Target: T1, Human factor D (Homo sapiens, UniProt P00746)
T1 construct: Human factor D (purified from human serum, Complement Technology, Inc.); purchased Complement Technology, Inc; host or cells: human serum
Assay: Human Factor D Assay
Format: biochemical
Details: Human factor D 80 nM, substrate Z-L-Lys-SBzl, DTNB
Experimental: The assay of Example 8 was used to determine the IC50's of the compounds. Other standard factor D inhibition assays are also available.
Human factor D (purified from human serum, Complement Technology, Inc.) at 80 nM final concentration is incubated with test compound at various concentrations for 5 minutes at room temperature in 50 mM Tris, 1M NaCl, pH 7.5. A synthetic substrate Z-L-Lys-SBzl and DTNB (Ellman's reagent) are added to final concentrations of 100 μM each. The increase in color is recorded at OD405 nm in a microplate in kinetic mode over 30 minutes with 30 second time points in a spectrofluorimeter. IC50 values are calculated by non-linear regression from the percentage of inhibition of complement factor D activity as a function of test compound concentration.

T1 sequence (P00746 26-253): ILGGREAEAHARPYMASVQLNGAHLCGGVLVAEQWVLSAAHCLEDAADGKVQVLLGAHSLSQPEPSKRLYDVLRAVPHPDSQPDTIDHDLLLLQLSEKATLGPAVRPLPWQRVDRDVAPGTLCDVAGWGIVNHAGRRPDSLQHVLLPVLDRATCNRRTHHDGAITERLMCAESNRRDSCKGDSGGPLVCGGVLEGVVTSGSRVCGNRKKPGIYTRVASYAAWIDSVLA

CC(=O)c1cn(CC(=O)N2C[C@H](F)C[C@H]2C(=O)NCc2cccc(Cl)c2F)c2cc(OCc3cc4ccc3CCc3ccc(cc3)CC4)ccc12 [Compound 6, (2S,4R)-1-(2-(3-acetyl-6-((tricyclo[8.2.2.2^4,7]hexadeca-4,6,10,12,13,15-hexaen-5-ylmethyl)oxy)-1H-indol-1-yl)acetyl)-N-(3-chloro-2-fluorobenzyl)-4-fluoropyrrolidine-2-carboxamide]
IC50: 1 to 10 µM
